Experimental data as given in publication PMC10796475, “Immobilization of Thermoplasma acidophilum Glucose Dehydrogenase and Isocitrate Dehydrogenase Through Enzyme-Inorganic Hybrid Nanocrystal Formation” (Current Microbiology, 2024).

Assays:
[1] = target: T1, TaIDH (T. acidophilum isocitrate dehydrogenase) (Thermoplasma acidophilum, UniProt Q9HLV8); experiment: NADPH formation at […] nm, initial rate (oxidative decarboxylation); assay type: biochemical; details: free enzyme; NADP+ 0.2 mM, MgCl2 0.4 mM; HEPES-NaOH pH 6.5, 37 °C; partially purified
T1 construct: gene Ta0117; pET21b(+) in E. coli BL21(DE3)pLysS; partially purified by heat treatment (60 °C, 15 min)
T1 sequence (Q9HLV8 1-405): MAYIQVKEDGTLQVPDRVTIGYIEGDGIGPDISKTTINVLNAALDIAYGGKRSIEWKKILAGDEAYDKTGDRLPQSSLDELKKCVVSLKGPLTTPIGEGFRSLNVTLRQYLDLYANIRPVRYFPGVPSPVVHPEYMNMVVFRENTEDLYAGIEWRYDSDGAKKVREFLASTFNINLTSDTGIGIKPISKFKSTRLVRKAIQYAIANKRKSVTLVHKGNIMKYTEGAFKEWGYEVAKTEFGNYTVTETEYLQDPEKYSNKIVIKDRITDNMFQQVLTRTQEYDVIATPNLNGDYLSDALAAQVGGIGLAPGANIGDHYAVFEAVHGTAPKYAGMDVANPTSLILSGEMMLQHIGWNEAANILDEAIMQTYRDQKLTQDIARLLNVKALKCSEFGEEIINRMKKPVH

[2] = target: T2, TaGDH (Thermoplasma acidophilum glucose dehydrogenase) (Thermoplasma acidophilum, UniProt P13203); experiment: NADPH formation at […] nm, initial rate; assay type: biochemical; details: free enzyme; NADP+ 0.2 mM; HEPES-NaOH pH 6.5, 37 °C; partially purified
T2 construct: gene gdh; pET21b(+) in E. coli Rosetta(DE3)pLysS; partially purified by heat treatment (60 °C, 15 min)
T2 sequence (P13203 2-361): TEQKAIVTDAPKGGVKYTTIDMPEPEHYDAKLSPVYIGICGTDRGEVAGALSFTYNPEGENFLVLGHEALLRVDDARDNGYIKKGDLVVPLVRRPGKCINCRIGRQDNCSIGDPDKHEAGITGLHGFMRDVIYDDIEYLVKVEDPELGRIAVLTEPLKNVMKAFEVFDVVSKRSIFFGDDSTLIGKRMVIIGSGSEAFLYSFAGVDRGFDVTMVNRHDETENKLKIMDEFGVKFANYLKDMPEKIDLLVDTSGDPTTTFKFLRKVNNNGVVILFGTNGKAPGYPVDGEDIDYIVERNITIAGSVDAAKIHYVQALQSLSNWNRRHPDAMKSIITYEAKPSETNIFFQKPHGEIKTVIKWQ

Structure (SMILES) | NADPH formation at 340 nm, initial rate (oxidative decarboxylation) [1] | NADPH formation at 340 nm, initial rate [2]
O=C(O)CC(C(=O)O)C(O)C(=O)O (racemic) [DL-isocitric acid] | NADPH released by the decarboxylation and oxidation of DL-isocitric acid per minute | –
OC[C@H]1OC(O)[C@H](O)[C@@H](O)[C@@H]1O (stereo partly drawn) [D-glucose] | – | micromoles of NADPH released by the oxidation of glucose per minute
